From ChEMBL document CHEMBL3046180, “Antifungal activity of some diaryl ethers” (2007)

Key:
Format in all cases: functional
Conditions in all cases: 96 h, read-out: GI
Fusarium graminearum [1] = experiment: Growth inhibition of Fusarium graminearum at 50 ug/ml after 4 days by poisoned food technique
Alternaria brassicae [2] = experiment: Growth inhibition of Alternaria brassicae at 50 ug/ml after 4 days by poisoned food technique
Pyricularia oryzae [3] = experiment: Growth inhibition of Magnaporthe oryzae at 50 ug/ml after 4 days by poisoned food technique
Alternaria alternata [4] = experiment: Growth inhibition of Alternaria alternata at 500 ug/ml after 4 days by poisoned food technique
[5] = tested on: Fusarium oxysporum f. sp. cucumerinum; experiment: Growth inhibition of Fusarium oxysporum f. sp. cucumerinum at 500 ug/ml after 4 days by poisoned food technique
Bipolaris sorokiniana [6] = experiment: Growth inhibition of Bipolaris sorokiniana at 50 ug/ml after 4 days by poisoned food technique
[7] = tested on: Fusarium oxysporum f. sp. cucumerinum; experiment: Growth inhibition of Fusarium oxysporum f. sp. cucumerinum at 50 ug/ml after 4 days by poisoned food technique
[8] = tested on: Fusarium oxysporum f. sp. vasinfectum; experiment: Growth inhibition of Fusarium oxysporum f. sp. vasinfectum at 50 ug/ml after 4 days by poisoned food technique
Bipolaris sorokiniana [9] = experiment: Growth inhibition of Bipolaris sorokiniana at 500 ug/ml after 4 days by poisoned food technique
Alternaria alternata [10] = experiment: Growth inhibition of Alternaria alternata at 50 ug/ml after 4 days by poisoned food technique
[11] = tested on: Fusarium oxysporum f. sp. vasinfectum; experiment: Growth inhibition of Fusarium oxysporum f. sp. vasinfectum at 500 ug/ml after 4 days by poisoned food technique
Alternaria brassicae [12] = experiment: Growth inhibition of Alternaria brassicae at 500 ug/ml after 4 days by poisoned food technique
Pyricularia oryzae [13] = experiment: Growth inhibition of Magnaporthe oryzae at 500 ug/ml after 4 days by poisoned food technique
Fusarium graminearum [14] = experiment: Growth inhibition of Fusarium graminearum at 500 ug/ml after 4 days by poisoned food technique

Row | Compound | inhibition of growth at 50 µg/mL (Fusarium graminearum [1]) | inhibition of growth at 50 µg/mL (Alternaria brassicae [2]) | inhibition of growth at 50 µg/mL (Pyricularia oryzae [3]) | inhibition of growth at 500 µg/mL (Alternaria alternata [4]) | inhibition of growth at 500 µg/mL [5] | inhibition of growth at 50 µg/mL (Bipolaris sorokiniana [6]) | inhibition of growth at 50 µg/mL [7] | inhibition of growth at 50 µg/mL [8] | inhibition of growth at 500 µg/mL (Bipolaris sorokiniana [9]) | inhibition of growth at 50 µg/mL (Alternaria alternata [10]) | inhibition of growth at 500 µg/mL [11] | inhibition of growth at 500 µg/mL (Alternaria brassicae [12]) | inhibition of growth at 500 µg/mL (Pyricularia oryzae [13]) | inhibition of growth at 500 µg/mL (Fusarium graminearum [14])
1 | O=[N+]([O-])c1ccccc1Oc1ccccc1Cl | 65.2% | 64.5% | 51% | 74% | 53.8% | 88.7% | 48% | 59.7% | 71.1% | 52.8% | 58% | 76.2% | 71.6% | 78.6%
2 | O=[N+]([O-])c1ccc(Oc2ccc([N+](=O)[O-])cc2)cc1 [4,4'-OXYBIS(NITROBENZENE)] | 13.6% | 36.8% | 1.9% | 19.8% | 50.9% | 20.4% | 38% | 57.6% | 16.7% | 15% | 63.6% | 75.2% | 36.6% | 3.1%
3 | CC(C)(C)c1ccc(Oc2ccccc2[N+](=O)[O-])cc1 | 38.8% | 38.4% | 37.9% | 53.3% | 17.3% | 50.3% | 8.4% | 19.3% | 38.7% | 33% | 11.2% | 37.4% | 44.8% | 52.7%
4 | O=[N+]([O-])c1ccc(Oc2ccc(Cl)cc2)cc1 | 63% | 42.7% | 47.6% | 61.3% | 38% | 78.1% | 34.1% | 41.4% | 74.3% | 47.4% | 43.4% | 47.2% | 63.8% | 66.8%
5 | Cc1cc(O)no1 [HYMEXAZOL] | 38.7% | 89% | 66.4% | 100% | 91.5% | 100% | 19.8% | 45.8% | 37.1% | 82.3% | 92.3% | 100% | 100% | 99.4%
6 | O=[N+]([O-])c1ccc(Oc2ccccc2)cc1 | 71.6% | 55.5% | 48% | 83.8% | 72.9% | 87.2% | 61.2% | 81.8% | 73% | 66.8% | 83.4% | 76% | 81.9% | 87.4%
7 | O=[N+]([O-])c1ccc(Oc2ccccc2Cl)cc1 | 79.5% | 36% | 47.8% | 81.9% | 75.5% | 89.5% | 38.8% | 47.5% | 66% | 60.4% | 55.6% | 65.3% | 77.5% | 92.8%
8 | Cc1cccc(Oc2ccccc2[N+](=O)[O-])c1 | 38.8% | 58.9% | 56.3% | 74.5% | 46% | 85.5% | 50.2% | 53.2% | 58.5% | 49% | 46.7% | 73.9% | 82.8% | 70.1%
